The text below walks through data of patent US8722648B2, “Liquid pharmaceutical form of alkylphosphocholine and method for preparing same” (priority 2009, dated 2014).

This series in a line: Solubility of hexadecylphosphocholine in co-solvent systems at 25° C. Format: physicochemical. As to conditions: aqueous with cosolvent or surfactant or cyclodextrin. The text has this:
The alkylphosphocholines are soluble in water, ethanol and methanol, but there are accurate bibliography data missing. […] For example, the solubility of alkylphosphocholines is sufficiency high in glycols and glycol ether. The improvement of alkylphosphocholines solubility is observed in propylene glycol-hexylene glycol-water mixtures as the solubility of alkylphosphocholines increases with increasing hexylene glycol concentration. The maximum is at 50% hexylene glycol level. […] The alkylphosphocholines solubility response is linear in the propylene glycol-concentration range 40÷60% in the co-solvent mixture. The addition of Transcutol P to the co-solvent mixture increased the solubility of alkylphosphocholines as a function of the concentration of Transcutol P, which may be due to a co-solvency effect. The functions of Transcutol P are simultaneously solubilizer and penetration enhancer to enable the active agent to cross the barrier of the stratum corneum.

The structures appear in SMILES notation. Values after ≈ are worked out from the molar mass of the structure shown.

Regarding `CCCCCCCCCCCCCCCCOP(=O)([O-])OCC[N+](C)(C)C` [hexadecylphosphocholine], the concentration in solution (hexylene glycol 22, propylene glycol 44, Transcutol P 2, water 32 % v/v) (solubility) came to 153 mg/mL (≈ 375 mM); the solubility (in general, how much of the substance goes into solution per volume) (co-solvent system (hexylene glycol/propylene glycol/water), hexylene glycol 22, propylene glycol 44, Transcutol P 0, water 34 % v/v) turned out to be 138 mg/mL (≈ 339 mM); the concentration in solution (co-solvent system (hexylene glycol/water), hexylene glycol 22, propylene glycol 0, Transcutol P 0, water 78 % v/v) (solubility) came to 119 mg/mL (≈ 291 mM).
